Test results taken from patent publication US10913714B2, “Pyrrole sulfonyl derivative, preparation method and medical use thereof” (JIANGSU CAREPHAR PHARMACEUTICAL CO., LTD, priority 2015, dated 2021).
Marks after values point to notes of the source that are not given here.

How the values were obtained:
H^+/K^+-ATPase = target: T1, H^+/K^+-ATPase (Oryctolagus cuniculus, UniProt P27112); test: Inhibition of H+/K+-ATPase enzymatic activity (rabbit gastric mucosal microsomes, malachite green); assay type: biochemical; settings: pH 6.5, 37° C. 30 min, read-out: The median inhibitory concentration (IC50) of the compound to the activity of H^+/K^+-ATPase
T1 construct: collecting the middle layer (H^+/K^+-ATPase enriched gastric membranes) into a clean centrifugal tube; from tissue; host or cells: rabbit stomach (gastric mucosal microsomes, sucrose/Ficoll gradient centrifugation)
Excerpt: Biological Evaluation on H^+/K^+-ATPase
The following screening assays in vitro are used to evaluate the inhibiting effect of the compound of the Invention on the enzymatic activity of H^+/K^+-ATPase. Experimental materials and instruments are as follows:
1) Rabbit gastric mucosal microsomes (enriched H^+/K^+-ATPase; extracted by the Applicant)
2) Buffer solution: 50 mmol/L HEPEs-Tris, pH=6.5, 5 mmol/L magnesium chloride, 10 μmol/L valinomycin;
3) Buffer solution: 50 mmol/L HEPEs-Tris, pH=6.5, 5 mmol/L magnesium chloride, 10 μmol/L valinomycin, 5 mmol/L potassium chloride;
4) ATP: diluting ATP to 5 mM with buffer solution 1;
5) Malachite green solution: dissolving 0.12% of malachite green in 2.5 mol/L of sulfuric acid; mixing 7.5% (V/V) of ammonium molybdate and 11% of Tween 20(V/V) in a proportion of 100:25:2;
6) The method for extracting rabbit gastric mucosal microsomes (enriched H^+/K^+-ATPase) is sucrose gradient centrifugation, i.e., washing the rabbit stomach with tap water and 3M NaCl solution respectively and removing the surface moisture with filter paper; adding the pre-cooled buffer solution (4 ml/g tissue) for homogenation in a tissue homogenizer for 2-5 min; removing the large tissue particles in a way of centrifugation (600 g, 10 mm) if any after homogenation; transferring the supernatant to a clean centrifugal tube for centrifugation for 30 min at 2000 g; then transferring the supernatant to a clean centrifugal tube for further centrifugation for 90 min at 100000 g; collecting the sediment; suspending the sediment in the homogenate and blowing it to be uniform; measuring the protein concentration with Bradford method; adjusting the concentration to 10 mg/ml; adding 7.5% Ficoll demixing fluid in an equal proportion for centrifugation for 60 min at 100000 g; collecting the middle layer (H^+/K^+-ATPase enriched gastric membranes) into a clean centrifugal tube; diluting it with 4-5 times of homogenate for further centrifugation for 90 min at 100000 g; collecting the sediment; suspending the sediment in the homogenate for homogenation with a glass homogenizer; measuring the protein concentration with Bradford method and adjusting the concentration to 22.5 mg/ml; freezing it under −80° C. for standby. Experimental Process:
Adding 5 μL of gastric mucosal microsomes (H^+/K^+-ATPase) in 45 µL of buffer solution 2; adding 5 μL of the compound solution; adding 5 μL 5 mM of ATP to start the reaction for pre-reaction at 37° C. for 30 min; adding 15 μL of malachite green solution to terminate the reaction; balancing at ambient temperature for 20 min; reading the value of absorbed light at 620 nm.
Meanwhile, conducting another reaction with the same volume without potassium chloride for background, which will be subtracted when calculating the enzymatic activity.
The value of Compound IC50 is calculated through the inhibition ratios at different concentrations.

[1] = system: gastric acid secretion induced by histamine; test: Gastric acid secretion induced by histamine in pylorus-ligated rats; assay type: in vivo; settings: SD rat
Excerpt: Test Case 3: Studies on the Effect of EXP 1, TAK-438 and EXP 14 on Gastric Acid Secretion Induced by Histamine Experimental Materials 1) Animals
SD rat, class SPF, male, 180-220 g; provided by Zhejiang Experimental Animal Center; production permit no.: SCXK (Z) 2014-0001.
Compound EXP 1, dissolved with a small amount of acetic acid (about 1.10N EXP 1), 0.9% sodium chloride solution to a clear liquid with needed concentration before use.
>Compound TAK-438, dissolved with 0.9% sodium chloride solution to a clear liquid with needed concentration before use.
Compound EXP 14, dissolved with a small amount of acetic acid (about 1.10N EXP 14), 0.9% sodium chloride solution to a clear liquid with needed concentration before use.
Fetching 60 SD rats of class SPF with a weight of 180-220 g; dividing the rats into 5 groups as per weights randomly, including Group EXP 1 (2 mg/kg), Group TAK-438 (2 mg/kg, as per free alkali), Group EXP 14 (2 mg/kg), Group negative control (normal saline of equal volume) and Group model control (normal saline of equal volume); 12 rats per group. Absolute diet for 24 h, water is allowed. After 24 h, administrating drugs to the tested compound groups A, B and C by gavage with a volume of 1 ml/100 g; each group is administered once; the negative control and model negative control groups are administrated by gavage with normal saline of equal volume. Narcotizing the rat with 300 mg/kg of chloral hydrate (1 ml/100 g) and fixing it onto the rat board; cutting to open the abdominal wall along the medioventral line from the mucronate cartilage with an incision of 2-3 cm; slightly pushing the left costal margin upward to expose the stomach in the incision. Ligaturing the pylorus thereunder (leave alone the adjacent blood vessels) and then suturing the abdominal incision. Giving histamine dihydrochloride (30 mg/10 m/kg) hypodermically to the rat 1 h after the tested compound or normal saline are administrated. Choking the rat to death with excessive CO2 3 h after the histamine is given; taking out the stomach and collecting the gastric contents for centrifugation at 3000 rpm/min; adjusting the PH value of the acid fluid to 7.0 with 0.1 mol/L of NaOH titration and then calculating the total acid content of the 3 h. Refer to Table 3 for results.

hERG potassium channel = target: T2, hERG potassium channel (Homo sapiens, UniProt Q12809); test: Whole cell patch clamp, inhibition of hERG tail current; assay type: cell-based
T2 construct: expressed in transfected cells
Description: Test Case 2: Studies on the Effect of Compounds EXP 1, TAK-438 and EXP 12 on hERG Potassium Channel Testing System 1) Cell culture: the hERG cell is cultured in a routine way, which is subcultured in a DMEM containing 10% of fetal calf serum and 250 μg/ml of G418. 2) Fluid preparation: the composition of the extracellular fluid used in the experiment of whole cell patch clamp comprises (mM): NaCl 145, MgCl21, KCl 4, Glucose 10, HEPES 10 and CaCl22; adjusting the pH value of NaOH to 7.4 and adjusting the value of osmotic pressure to 300 mOsm with sucrose. The composition of the intracellular fluid comprises (mM):KCl 140; MgCl 21; EGTA 5; HEPES 10 and Na2ATP 4; adjusting the pH value of KOH to 7.2 and adjusting the value of osmotic pressure to 290 mOsm with sucrose.
Main composition of the extracellular and intracellular fluid
Test Procedure 1) Electrophysiological recording: taking out one culture dish for each test; cleaning it with the extracellular fluid twice and placing it on the inverted microscope stage. The experiment of whole cell patch clamp is conducted at ambient temperature; the resistance at the microelectrode tip of the used borosilicate glass is 3-5 MQ. 2) Voltage stimulus plan and current record: clamping down the membrane potential to −80 mV under the whole-cell recording mode; giving +50 mV of depolarized voltage stimulus to the cell every 30 s and lasting for 2 s, then repolarizing it to −50 mV and lasting for 3 s, thus, the tail current of hERG can be extracted. Giving 50 ms, −50 mV repolarized voltage to the cell before depolarized voltage stimulus; the current recorded at such voltage is as the base line for calculating the tail current of hERG. Only the cells meet the recording standard can be used in the test of the compounds to be tested. The hERG tail current should be recorded stably at last for 3 min in the extracellular fluid before the compound is added. After perfusion of drugs, it can be regarded that the drug effect reaches a steady state if the change of the amplitude of hERG tail current is less than 5%. If the current fails to reach a steady state in 6 min, the test should also be terminated. 3) Testing standard: the membrane resistance in the experiment should be more than 1,000 MQ. The initial current should be more than 300 pA. The series resistance should be less than 12 MQ after the whole-cell recording mode is constructed. The leakage current is less than 10% of the ionic channel current (taking −80 pA as the peak value). Data Analysis
Using Clampex 10.2 to record the original data and saving the data in the format of *abf. Using pCLAMP 10.1 to conduct data collection and analysis. Selecting 4-5 sweeps when the current is in a steady state before the compound is added; calculating the average peak value to serve as the contrasted current amplitude. Selecting 4-5 sweeps when the current is in a steady state after the compound is added; calculating the average peak value to serve as the residual amplitude of the inhibited current. The inhibition ratio of the compound to be tested to hERG current is calculated as per the equation as: % inhibition ratio={1−(current residual amplitude)/(contrasted current amplitude)}*100
After the inhibition ratio (average value±standard deviation) of the compound to be tested to the hERG current of different concentrations is obtained through the above computing method, the data with logistic equation should be fitted to obtain the value of IC50.

T1 sequence (P27112 whole entry): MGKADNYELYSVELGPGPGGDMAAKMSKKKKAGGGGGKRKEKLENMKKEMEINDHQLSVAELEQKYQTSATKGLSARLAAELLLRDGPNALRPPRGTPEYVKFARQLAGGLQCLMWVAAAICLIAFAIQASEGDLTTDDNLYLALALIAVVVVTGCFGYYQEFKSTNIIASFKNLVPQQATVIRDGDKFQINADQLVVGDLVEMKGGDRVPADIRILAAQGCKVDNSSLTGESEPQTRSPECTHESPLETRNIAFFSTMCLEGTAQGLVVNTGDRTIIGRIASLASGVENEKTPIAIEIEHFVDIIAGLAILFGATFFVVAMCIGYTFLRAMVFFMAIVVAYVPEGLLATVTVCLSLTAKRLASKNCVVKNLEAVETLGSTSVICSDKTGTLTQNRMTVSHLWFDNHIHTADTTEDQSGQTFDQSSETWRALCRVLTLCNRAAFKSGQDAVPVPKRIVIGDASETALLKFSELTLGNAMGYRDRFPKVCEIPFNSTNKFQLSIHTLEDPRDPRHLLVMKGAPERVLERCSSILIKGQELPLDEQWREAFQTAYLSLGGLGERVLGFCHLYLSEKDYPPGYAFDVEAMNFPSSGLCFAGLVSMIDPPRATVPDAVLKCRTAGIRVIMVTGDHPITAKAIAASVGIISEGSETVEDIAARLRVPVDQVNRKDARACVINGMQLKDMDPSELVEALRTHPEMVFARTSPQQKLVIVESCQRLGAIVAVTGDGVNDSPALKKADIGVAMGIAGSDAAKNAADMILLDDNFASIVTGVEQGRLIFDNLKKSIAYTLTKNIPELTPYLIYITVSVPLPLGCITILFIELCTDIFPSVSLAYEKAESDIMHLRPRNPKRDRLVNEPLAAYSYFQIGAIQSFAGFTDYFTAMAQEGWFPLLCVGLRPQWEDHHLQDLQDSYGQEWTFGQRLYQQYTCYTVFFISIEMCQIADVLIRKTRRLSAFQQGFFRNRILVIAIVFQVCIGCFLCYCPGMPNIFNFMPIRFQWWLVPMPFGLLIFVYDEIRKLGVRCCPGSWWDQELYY
T1 sequence (P18597 whole entry partner): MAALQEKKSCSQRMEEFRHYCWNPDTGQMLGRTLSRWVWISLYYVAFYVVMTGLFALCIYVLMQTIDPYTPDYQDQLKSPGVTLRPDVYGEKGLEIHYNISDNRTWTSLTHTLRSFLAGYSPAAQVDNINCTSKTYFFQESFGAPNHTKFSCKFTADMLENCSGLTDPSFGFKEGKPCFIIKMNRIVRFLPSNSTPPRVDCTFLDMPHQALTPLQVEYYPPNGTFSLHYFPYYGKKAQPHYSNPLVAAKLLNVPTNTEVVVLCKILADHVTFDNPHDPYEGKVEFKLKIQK
T2 sequence (Q12809 whole entry): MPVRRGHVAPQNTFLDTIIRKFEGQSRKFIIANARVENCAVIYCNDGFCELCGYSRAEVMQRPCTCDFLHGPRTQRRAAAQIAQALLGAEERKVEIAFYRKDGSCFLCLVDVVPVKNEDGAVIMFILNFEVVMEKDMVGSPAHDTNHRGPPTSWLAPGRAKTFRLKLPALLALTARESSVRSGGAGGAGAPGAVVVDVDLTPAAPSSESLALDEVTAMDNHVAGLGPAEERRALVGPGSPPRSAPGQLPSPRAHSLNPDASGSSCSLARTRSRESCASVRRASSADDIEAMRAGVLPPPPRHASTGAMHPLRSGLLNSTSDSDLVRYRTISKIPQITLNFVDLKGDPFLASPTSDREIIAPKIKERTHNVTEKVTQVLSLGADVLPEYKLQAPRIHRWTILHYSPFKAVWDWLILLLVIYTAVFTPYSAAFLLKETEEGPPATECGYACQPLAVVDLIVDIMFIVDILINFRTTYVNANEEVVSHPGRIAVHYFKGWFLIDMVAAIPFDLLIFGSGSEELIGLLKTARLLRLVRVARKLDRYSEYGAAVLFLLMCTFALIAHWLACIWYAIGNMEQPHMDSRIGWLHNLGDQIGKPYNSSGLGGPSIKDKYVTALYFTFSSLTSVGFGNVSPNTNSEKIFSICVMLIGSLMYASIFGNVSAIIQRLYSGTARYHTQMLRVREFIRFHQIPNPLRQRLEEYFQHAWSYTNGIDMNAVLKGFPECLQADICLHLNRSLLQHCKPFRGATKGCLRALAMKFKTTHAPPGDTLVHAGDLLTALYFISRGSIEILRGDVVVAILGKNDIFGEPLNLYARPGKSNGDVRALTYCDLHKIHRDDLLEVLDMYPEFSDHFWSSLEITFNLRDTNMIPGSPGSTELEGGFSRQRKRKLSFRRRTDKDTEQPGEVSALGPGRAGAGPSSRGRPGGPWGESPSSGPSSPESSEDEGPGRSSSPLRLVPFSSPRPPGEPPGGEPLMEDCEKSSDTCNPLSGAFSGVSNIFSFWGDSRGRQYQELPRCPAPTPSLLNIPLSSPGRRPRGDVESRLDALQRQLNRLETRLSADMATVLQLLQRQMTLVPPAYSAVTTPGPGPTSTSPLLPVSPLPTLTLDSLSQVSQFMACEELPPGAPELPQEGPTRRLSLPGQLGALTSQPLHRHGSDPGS

| Compound | IC50 (H^+/K^+-ATPase) | also measured |
| --- | --- | --- |
| CNCc1cc(-c2ccccc2F)n(S(=O)(=O)c2cccc(OCCCS(C)(=O)=O)c2)c1 [EXP 4, 1-(5-(2-fluorobenzene)-1-((3-(3-methylsulphonylpropoxy)phenyl)sulfonyl)-1H-pyrrole-3-yl)-N-methyl methylamine] | < 0.1 µM | – |
| CNCc1cc(-c2ccccc2F)n(S(=O)(=O)c2cccc(OCC(=O)NC)c2)c1 [EXP 14, 2-(3-((2-(2-fluorophenyl)-4-((methylamine)methyl)-1H-pyrrole-1-yl)sulfonyl)phenoxy)-N-methylacetamide] | 0.1 to 1 µM | Total acid content ([1]; 2 mg/kg by gavage 1 h before histamine, total acid of 3 h): 0.65 ± 0.20** 10^−4 mol; Acid inhibiting rate % ([1]; 2 mg/kg by gavage, compared with model control): 40.4% |
| CNCc1cc(-c2ccccc2F)n(S(=O)(=O)c2cccc(NCCN3CCOCC3)c2)c1 [EXP 6, 3-((2-(2-Fluorobenzene)-4-((Methylamino)Methylene)-1H-Pyrrole-1-Yl)Sulfonyl)-N-(2-Morpholinyl Ethyl) Henylamine] | 0.1 to 1 µM | – |
| CNCc1cc(-c2ccccc2F)n(S(=O)(=O)c2cccc(OCCN3CCCCC3)c2)c1 [EXP 11] | 1 to 5 µM | – |
| CNCCCOc1cccc(S(=O)(=O)n2cc(CNC)cc2-c2ccccc2F)c1 [EXP 7, 3-(3-((2-(2-fluorobenzene)-4-((methylamino)methylene)-1H-pyrrole-1-yl)sulfonyl)phenoxy)-N-methyl-n-propylamine] | 0.1 to 1 µM | – |
| CNCc1cc(-c2ccccc2F)n(S(=O)(=O)c2cccc(OC)c2)c1 [EXP 12] | < 0.1 µM | IC50 (hERG potassium channel; human, hERG cells (host cell line not named), pH 7.4, whole cell patch clamp, logistic fit): 3.95 µM; Inhibition ratio of max. test concentration (hERG current) (hERG potassium channel; max. test concentration 30 μM): 90.33 ± 2.16% |
| CNCc1cc(-c2ccccc2F)n(S(=O)(=O)c2cccc(OCCN3CCOCC3)c2)c1 [EXP 5, 1-(5-(2-Fluorobenzene)-1-((3-(2-Morpholinyl Ethyoxyl)Phenyl)Sulfonyl)-1H-Pyrrole-3-Yl)-N-Methyl Methylamine] | 0.1 to 1 µM | – |
| CNCc1cc(-c2ccccc2F)n(S(=O)(=O)c2cccc(OCC(C)(C)COC)c2)c1 [EXP 9, 1-(5-(2-fluorobenzene)-1-((3-(3-methoxy-2,2-dimethylpropoxy)phenyl)sulfonyl)-1H-pyrrole-3-yl)-N-methyl methylamine] | 0.1 to 1 µM | – |
| CNCc1cc(-c2ccccc2F)n(S(=O)(=O)c2cccc(OCCOC)c2)c1 [EXP 3, 1-(5-(2-fluorobenzene)-1-((3-(2-methoxyethyoxyl)phenyl)sulfonyl)-1H-pyrrole-3-yl)-N-methyl methylamine] | 0.1 to 1 µM | – |
| CNCc1cc(-c2ccccc2F)n(S(=O)(=O)c2cccc(OCCOc3ccccc3)c2)c1 [EXP 10, 1-(5-(2-Fluorobenzene)-1-((3-(2-Phenoxy Ethyoxyl)Phenyl)Sulfonyl)-1H-Pyrrole-3-Yl)-N-Methyl Methylamine] | < 0.1 µM | – |
| CNCc1cc(-c2ccccc2F)n(S(=O)(=O)c2cccc(OCC3CNCCO3)c2)c1 (stereo not shown) [EXP 8, 1-(5-(2-fluorobenzene)-1-((3-(morpholinyl-2-yl-methoxyl)phenyl)sulfonyl)-1H-pyrrole-3-yl)-N-methyl methylamine] | 0.1 to 1 µM | – |
| CNCc1cc(-c2ccccc2F)n(S(=O)(=O)c2cccc(OC3CCN(C(C)=O)C3)c2)c1 (stereo not shown) [EXP 2, 1-(3-(3-((2-(2-fluorobenzene)-4-((methylamino)methyl)-1H-yl)sulfonyl)phenoxy)pyrrolidine-1-yl)ethyl-1-ketone] | 0.1 to 1 µM | – |
